Experiment [1] relates to Medicago truncatula A17. Put plainly: Plant nodulation assay with stabilized E. meliloti. The experiment is classed as in vivo. Conditions: E. meliloti formulated in the material, 50° C. shock for 24 hours, rehydrated, applied to seedlings. The procedure: E. meliloti cultures were prepared as described above (see “High throughput pipeline for microbial material stabilizers”) and freeze-dried with the specified stabilizers following the 1-well plate method described in “Validation of two-material combinations”. The bagged, stabilized powders were exposed to 50° C. for 24 hours in a static incubator and then kept in the dark at 4° C. until used.
Nodulation of Medicago truncatula A17 was assayed according to a protocol from Sadowsky et al. modified to growth in pouches^20-22. Specifically, M. truncatula A17 seeds (Noble Research Institute) were scarified by submerging in concentrated sulfuric acid for 8-9 minutes, washed 8× with sterile water, sterilized by submerging in 8.25% sodium hypochlorite for 90 seconds, washed 8× with sterile water, allowed to imbibe in sterile water for ˜1 hour, placed on 1% agar plates, sealed with parafilm and foil, vernalized at 4° C. in the dark for 5 days and germinated at 23° C. in the dark for 20 hours. […]
The pouches were left undisturbed for 6 days, watered with 5 mL of 1/2×BNM as necessary and then inspected for nodules every other day. On day 12, the number of nodulated seedlings in each pouch was counted. The percent nodulated seedlings was calculated by dividing the number of nodulated seedlings by the total number of seedlings in the pouch.

For experiment [2], the system named is E. meliloti. Put plainly: Heat shock screen of material library at 50° C. for 24 hours (Viability Score). The experiment is classed as cell-based, Ensifer meliloti. As for the experimental part: FIG. 18. E. meliloti stabilizers against 24 hours at 50° C. Extended data of FIG. 8. E. meliloti was mixed with the material library at the 1×concentration, freeze dried, and exposed to 50° C. for 24 hours. The viability score was characterized as in FIG. 8, and the data is ordered by the viability score of the comparison values when stored at 23° C.
E. meliloti is currently used as a seed inoculant prior to planting, however, there remains a need for improved stability of the microbial product present during formulation, storage, and seed inoculation, particularly when it comes to tolerance to elevated temperatures above 40° C.^28,29. […] Functional symbiosis was measured as percent of seedlings that successfully formed nodules. […]
(§1) The viability of the stored microbial-material combinations was determined by rehydrating in water, making 10-fold serial dilutions in PBS, plating onto the appropriate solid medium and quantifying the resulting colonies. […]
(§2) To assign a Viability Score, using FIJI (imageJ), the 16-bit tiff plate images were programmatically separated into individual spot images, each spot was segmented, and several image attributes were measured (raw particle count, mean background value, mean segmented region value, segmented region area). […]

Experiment [3] has as its system E. coli Nissle 1917. Put plainly: Validation of two-material combinations at 37° C. It is filed as cell-based, Escherichia coli. Particulars: in combination with melibiose, larger format. The procedure:
E. coli Nissle 1917 was prepared as described above (see “Vial-based viability validation”) with a few modifications: the flask culture was 2 L and incubated for 17-18 hours and the final cell suspension in PBS was set to an OD600 of 10-12.
To freeze-dry, the cell suspension (12.5 mL) was mixed with the target material combination (37.5 mL), poured into rectangular 1-well plates, and placed into a tray freeze dryer with shelfs pre-cooled to −40° C. and on custom 0.25-inch aluminum pedestals to ensure heat transfer to the plates. Samples were dried as described above (see “High throughput pipeline”). […]
The viability of the stored samples was assessed by hydrating the samples with 1 mL PBS, making 10-fold serial dilutions, spotting ˜1.5 uL of each dilution in triplicate onto LB agar in 1-well rectangular plates using a pin replicator (V&P Scientific, VP 407A), incubating at 37° C., and counting colonies on the strongest dilution that gives >1 colony per spot. Total CFU counts per sample were calculated by first dividing spot counts by the spotted volume and multiplying by the dilution factor and total rehydration volume, and then averaging across the three spotting replicates. Total CFU counts per mass were calculated by dividing the CFU counts per sample by the mass of the stored sample. Three independently stored replicate samples were analyzed as described. […]

In experiment [4] the test system is Escherichia coli Nissle 1917, Ensifer meliloti, Saccharomyces boulardii, Lactobacillus plantarum. Put plainly: High throughput pipeline for microbial material stabilizers (Viability Score after freeze-drying). The experiment is classed as cell-based. Particulars: for viability score: after freeze-drying and 24 hours at room temperature, across the 4 microorganisms, score 0 to 1. The procedure: It was hypothesized that a synthetic extremophile that could survive in the dry state could then be enhanced to survive additional environmental insults using material formulation techniques applied to the dry powder (e.g., coating)^9. Therefore, a library was screened, composed primarily of materials generally recognized as safe (GRAS) by the Food and Drug Administration (FDA) for their ability to protect microbes through freeze-drying and survival at room temperature for 24 hours (Table 2). This materials library was applied to 4 microorganisms (Escherichia coli Nissle 1917, Ensifer meliloti, Saccharomyces boulardii, Lactobacillus plantarum) that span a wide range of phylogenetic backgrounds, are technologically important and genetically tractable. Each microorganism was mixed with each of the 260 materials at two different concentrations to give 2,080 microbial-material formulations.
Microbial strains were precultured overnight in 5 mL liquid medium at the appropriate conditions (see above). The overnight culture was diluted 1:1000 fold into three replicates of 125 mL of fresh liquid medium in a flask and cultured for 24 hours. The optical density (OD600) of each replicate culture was recorded (typically 2-2.5 for E. coli Nissle 1917, E. meliloti, L. plantarum and 5-6 for S. boulardii) and the cells were pelleted at 3220 rcf for 15 minutes. The cell pellets were then resuspended in PBS (E. meliloti, L. plantarum, S. boulardii) or spent medium (E. coli Nissle 1917) to a final OD600 of 2.25 and used immediately.
The material library was prepared by mixing each material with ultrapure water to the specified concentration (1×, 5×) in Table 2. The material solutions were arrayed in sealed deep well plates and kept at −20° C. until needed. On the day of use, the material plates were thawed at room temperature, vortexed well and centrifuged briefly.
To freeze-dry, each replicate microbial cell suspension (25 uL) was mixed with the arrayed materials (75 uL) in batch into flat-bottom 96-well plates using a liquid handling robot (Tecan, EVO 150). […]
as §1, §2

Here are results for seven molecules from patent US20250288624A1, “LONG-TERM STABILIZATION, FORMULATION AND TABLETING OF LIVE MICROBIAL CELLS” (priority 2022, published 2025).

Consider `OC[C@H]1O[C@H](O[C@H]2[C@H](O)[C@@H](O)C(O)O[C@@H]2CO)[C@H](O)[C@@H](O)[C@@H]1O` (mixture of isomers) [maltose], for which the “nodulation of M. truncatula seedlings by stabilized E. meliloti” value in experiment [1] is “successfully nodulate”. Further, the “material class in heat shock screen (synthetic thermotolerance)” value in experiment [2] is on record as “optimal”.

For the molecule `Cn1c(=O)c2c(ncn2C)n(C)c1=O` [caffeine], in experiment [3], the “stability of two-material formulation at extended storage times” value was “robust”.

As for `OC[C@H]1O[C@H](OCC2O[C@@H](O)[C@H](O)[C@@H](O)[C@@H]2O)[C@H](O)[C@@H](O)[C@H]1O` (stereo partly drawn) [melibiose], in experiment [4] (E. coli Nissle 1917), the “performance in stabilizer screen” value was “best performing material”.

For the molecule `[Na+].[OH-]` [sodium hydroxide], the viability score in experiment [4] was 0.

Consider `O=S([O-])S(=O)(=O)[O-].[Na+].[Na+]` [sodium metabisulfite], for which, in experiment [4], the viability score is 0.

With `OC[C@H]1O[C@@](CO)(O[C@H]2O[C@H](CO)[C@@H](O)[C@H](O)[C@H]2O)[C@@H](O)[C@@H]1O` [sucrose], in experiment [1], the “nodulation of M. truncatula seedlings by stabilized E. meliloti” value is “successfully nodulate”. Also, the “material class in heat shock screen (synthetic thermotolerance)” value in experiment [2] is recorded as “optimal”.

In the case of `OC[C@H]1O[C@H](O[C@H]2O[C@H](CO)[C@@H](O)[C@H](O)[C@H]2O)[C@H](O)[C@@H](O)[C@@H]1O` [trehalose], the viability score entry in experiment [4] was “measurable viability”.
